The test deals with T1, human PDE9A2 (Homo sapiens, UniProt O76083).
T1 construct: made in house; host or cells: Sf9 insect cells (infected); crude lysate used as enzyme source
As to the kind of experiment: PDE9A2 enzymatic activity assay (scintillation proximity assay, SPA). The settings on record: for inhibition at 10 µM: read-out: % inhibition of PDE9A2 (at 10 micromolar concentration), 10 micromolar concentration, values above 100% adjusted to 100%; for IC50: reported only as range 1-100 or 101-1200 nanomolar, specific value lies within range, read-out: IC50 within range [nanomolar (nM)]. It is filed as biochemical.

The structures appear in SMILES notation.

T1 sequence (O76083 1-533 isoform O76083-2): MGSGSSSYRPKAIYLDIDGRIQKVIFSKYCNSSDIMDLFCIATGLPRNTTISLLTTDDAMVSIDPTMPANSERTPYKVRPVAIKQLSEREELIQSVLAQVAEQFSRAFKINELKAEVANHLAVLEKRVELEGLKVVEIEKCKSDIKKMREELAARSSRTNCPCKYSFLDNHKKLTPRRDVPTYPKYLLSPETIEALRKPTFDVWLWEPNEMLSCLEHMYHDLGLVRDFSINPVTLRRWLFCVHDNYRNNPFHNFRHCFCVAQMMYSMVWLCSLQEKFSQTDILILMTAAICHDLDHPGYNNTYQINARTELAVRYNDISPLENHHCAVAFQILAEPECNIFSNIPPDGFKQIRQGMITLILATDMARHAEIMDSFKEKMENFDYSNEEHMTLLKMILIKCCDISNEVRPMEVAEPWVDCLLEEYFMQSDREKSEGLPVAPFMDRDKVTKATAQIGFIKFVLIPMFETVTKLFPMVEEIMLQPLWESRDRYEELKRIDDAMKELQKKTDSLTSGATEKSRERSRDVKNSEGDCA

Consider `CC(Cc1nc2c(cnn2C2CCOC2)c(=O)[nH]1)C(F)(F)F` (mixture of isomers) [Example 72], for which the inhibition at 10 µM worked out at 91% and the IC50 fell in the range of 101 to 1200 nM.

Take `CCC(Cc1nc2c(cnn2C2CCOC2)c(=O)[nH]1)C(F)(F)F` (mixture of isomers) [Example 77]: the inhibition at 10 µM came out at 89% and the IC50 is 101 to 1200 nM.

`O=c1[nH]c(CC2CCOC2)nc2c1cnn2C1CCOC1` (mixture of isomers) [Example 81]: the inhibition at 10 µM came out at 78% and the IC50 is 101 to 1200 nM.

`CCC(C)Cc1nc2c(cnn2C2CCOC2)c(=O)[nH]1` (mixture of isomers) [Example 84]: the inhibition at 10 µM came out at 97% and the IC50 was in the range of 1 to 100 nM.

With `CCC(C)Cc1nc2c(cnn2C2CCCOC2)c(=O)[nH]1` (mixture of isomers) [Example 95], the inhibition at 10 µM came out at 98% and the IC50 is 1 to 100 nM.

On to `CCC(Cc1nc2c(cnn2C2CCCN(C(C)=O)C2)c(=O)[nH]1)C(F)(F)F` (mixture of isomers) [Example 173], for which the inhibition at 10 µM stood at 86% and the IC50 was in the range of 101 to 1200 nM.

Regarding `CCC(Cc1nc2c(cnn2C2CCCN(C(=O)c3ccccc3)C2)c(=O)[nH]1)C(F)(F)F` (mixture of isomers) [Example 174], the inhibition at 10 µM came to 89% and the IC50 fell in the range of 101 to 1200 nM.

`CCC(Cc1nc2c(cnn2C2CCN(C)C2)c(=O)[nH]1)C(F)(F)F` (mixture of isomers) [Example 213]: the inhibition at 10 µM turned out to be 86% and the IC50 is 101 to 1200 nM.

In the case of `O=c1[nH]c(C(F)c2ccccc2)nc2c1cnn2C1CCOCC1` (racemic) [Example 12], the inhibition at 10 µM was 97% and the IC50 lay in the range of 1 to 100 nM.

On to `CC(c1ccccc1)c1nc2c(cnn2C2CCOCC2)c(=O)[nH]1` (racemic) [Example 14], for which the inhibition at 10 µM turned out to be 96% and the IC50 was 101 to 1200 nM.

Turning to `CC(C)(C)OC(=O)N1CCC(n2ncc3c(=O)[nH]c(Cc4ccccc4)nc32)C1` (racemic) [Example 15], the inhibition at 10 µM stood at 92% and the IC50 is 101 to 1200 nM.

Regarding `CC(C)(C)OC(=O)N1CCC(n2ncc3c(=O)[nH]c(CC4CCC4)nc32)C1` (racemic) [Example 16], the inhibition at 10 µM is 86% and the IC50 lay within 101 to 1200 nM.

`CC(C)(C)OC(=O)N1CCCC(n2ncc3c(=O)[nH]c(CC4CCCC4)nc32)C1` (racemic) [Example 17]: the inhibition at 10 µM is 100% and the IC50 fell in the range of 1 to 100 nM.

On to `CC(C)(C)OC(=O)N1CCCC(n2ncc3c(=O)[nH]c(Cc4ccccc4)nc32)C1` (racemic) [Example 18], for which the inhibition at 10 µM was 99% and the IC50 lay in the range of 1 to 100 nM.

With `CC(C)(C)OC(=O)N1CCCC(n2ncc3c(=O)[nH]c(Cc4ccccc4OC(F)(F)F)nc32)C1` (racemic) [Example 19], the inhibition at 10 µM is 99% and the IC50 was 1 to 100 nM.

Consider `CC(C)(C)OC(=O)N1CCCC(n2ncc3c(=O)[nH]c(Cc4ccccn4)nc32)C1` (racemic) [Example 20], for which the inhibition at 10 µM worked out at 98% and the IC50 lay within 1 to 100 nM.

In the case of `CCC(Cc1nc2c(cnn2C2CCCN(C(=O)OC(C)(C)C)C2)c(=O)[nH]1)C(F)(F)F` (racemic) [Example 21], the inhibition at 10 µM worked out at 97% and the IC50 is 101 to 1200 nM.

For the compound `CC(C)(C)OC(=O)N1CCCC(n2ncc3c(=O)[nH]c(Cc4cccc(C(F)(F)F)c4)nc32)C1` (racemic) [Example 22], the inhibition at 10 µM was 98% and the IC50 was 1 to 100 nM.

As to `CC(C)(C)OC(=O)N1CCCC(n2ncc3c(=O)[nH]c(Cc4ccccc4F)nc32)C1` (racemic) [Example 23], the inhibition at 10 µM is 99% and the IC50 lay in the range of 1 to 100 nM.

As to `CCOc1ccccc1Cc1nc2c(cnn2C2CCCN(C(=O)OC(C)(C)C)C2)c(=O)[nH]1` (racemic) [Example 30], the inhibition at 10 µM was found to be 100% and the IC50 was 1 to 100 nM.

For the compound `CC(C)Cc1nc2c(cnn2C2CCCN(C(=O)OC(C)(C)C)C2)c(=O)[nH]1` (racemic) [Example 31], the inhibition at 10 µM was found to be 98% and the IC50 was 1 to 100 nM.

Take `CC(C)(C)OC(=O)N1CCCC(n2ncc3c(=O)[nH]c(CC4CCC4)nc32)C1` (racemic) [Example 32]: the inhibition at 10 µM turned out to be 100% and the IC50 lay in the range of 1 to 100 nM.

As to `COc1ccc(C2CCCCC2Cc2nc3c(cnn3C3CCOCC3)c(=O)[nH]2)cn1` (racemic) [Example 40-4], the inhibition at 10 µM came out at 92% and the IC50 is 101 to 1200 nM.

On to `O=c1[nH]c(CC2CCCO2)nc2c1cnn2C1CCOCC1` (racemic) [Example 42], for which the inhibition at 10 µM came out at 92% and the IC50 was in the range of 101 to 1200 nM.

With `CC(Cc1nc2c(cnn2C2CCOCC2)c(=O)[nH]1)C(F)(F)F` (racemic) [Example 46], the inhibition at 10 µM stood at 100% and the IC50 was 1 to 100 nM.

On to `CCC(Cc1nc2c(cnn2C2CCOCC2)c(=O)[nH]1)C(F)(F)F` (racemic) [Example 48], for which the inhibition at 10 µM turned out to be 96% and the half-maximal inhibitory concentration (IC50) fell in the range of 1 to 100 nM.

On to `O=c1[nH]c(CC2CCCC2)nc2c1cnn2C1CCOC1` (racemic) [Example 69], for which the inhibition at 10 µM was 99% and the IC50 was in the range of 1 to 100 nM.

As for `O=c1[nH]c(Cc2ccccc2OC(F)(F)F)nc2c1cnn2C1CCOC1` (racemic) [Example 70], the inhibition at 10 µM came out at 99% and the IC50 fell in the range of 1 to 100 nM.

Turning to `O=c1[nH]c(Cc2ccc(F)c(Cl)c2)nc2c1cnn2C1CCOC1` (racemic) [Example 71], the inhibition at 10 µM was 99% and the IC50 lay in the range of 1 to 100 nM.

On to `O=c1[nH]c(CC2CCC2)nc2c1cnn2C1CCOC1` (racemic) [Example 73], for which the inhibition at 10 µM came out at 97% and the IC50 was 1 to 100 nM.

For the compound `CC(C)Cc1nc2c(cnn2C2CCOC2)c(=O)[nH]1` (racemic) [Example 74], the inhibition at 10 µM was determined as 95% and the IC50 is 1 to 100 nM.

Take `O=c1[nH]c(CC2CCCCC2)nc2c1cnn2C1CCOC1` (racemic) [Example 75]: the inhibition at 10 µM was 98% and the IC50 is 1 to 100 nM.

For `CCC(CC)Cc1nc2c(cnn2C2CCOC2)c(=O)[nH]1` (racemic) [Example 76], the inhibition at 10 µM amounted to 98% and the IC50 is 1 to 100 nM.

For the compound `O=c1[nH]c(Cc2cccnc2)nc2c1cnn2C1CCOC1` (racemic) [Example 78], the inhibition at 10 µM turned out to be 99% and the IC50 fell in the range of 101 to 1200 nM.

For the compound `O=c1[nH]c(Cc2ccc(F)cc2)nc2c1cnn2C1CCOC1` (racemic) [Example 79], the inhibition at 10 µM was found to be 99% and the IC50 is 1 to 100 nM.

Take `O=c1[nH]c(CC2CC2)nc2c1cnn2C1CCOC1` (racemic) [Example 80]: the inhibition at 10 µM came to 94% and the IC50 lay within 1 to 100 nM.

For the compound `CCOc1ccccc1Cc1nc2c(cnn2C2CCOC2)c(=O)[nH]1` (racemic) [Example 82], the inhibition at 10 µM was 100% and the IC50 lay in the range of 1 to 100 nM.

In the case of `COc1ccccc1Cc1nc2c(cnn2C2CCOC2)c(=O)[nH]1` (racemic) [Example 83], the inhibition at 10 µM was 96% and the IC50 lay within 1 to 100 nM.

For the compound `O=c1[nH]c(Cc2cccc(C(F)(F)F)c2)nc2c1cnn2C1CCOC1` (racemic) [Example 85], the inhibition at 10 µM was 99% and the IC50 was 1 to 100 nM.

Take `O=c1[nH]c(Cc2ccccc2C(F)(F)F)nc2c1cnn2C1CCOC1` (racemic) [Example 86]: the inhibition at 10 µM was found to be 95% and the IC50 was 101 to 1200 nM.

On to `Cc1cccnc1Cc1nc2c(cnn2C2CCOC2)c(=O)[nH]1` (racemic) [Example 87], for which the inhibition at 10 µM amounted to 86% and the IC50 is 101 to 1200 nM.

Regarding `N#Cc1ccccc1Cc1nc2c(cnn2C2CCOC2)c(=O)[nH]1` (racemic) [Example 88], the inhibition at 10 µM is 96% and the IC50 lay in the range of 1 to 100 nM.

For `N#Cc1cccc(Cc2nc3c(cnn3C3CCOC3)c(=O)[nH]2)c1` (racemic) [Example 89], the inhibition at 10 µM was 95% and the IC50 is 101 to 1200 nM.

As for `O=c1[nH]c(CC2CCCC2)nc2c1cnn2C1CCCOC1` (racemic) [Example 90], the inhibition at 10 µM was found to be 100% and the IC50 lay in the range of 1 to 100 nM.

As for `O=c1[nH]c(Cc2ccccc2OC(F)(F)F)nc2c1cnn2C1CCCOC1` (racemic) [Example 91], the inhibition at 10 µM came out at 99% and the IC50 lay within 1 to 100 nM.

With `CC(C)Cc1nc2c(cnn2C2CCCOC2)c(=O)[nH]1` (racemic) [Example 92], the inhibition at 10 µM came to 98% and the IC50 is 1 to 100 nM.

Regarding `CCOc1ccccc1Cc1nc2c(cnn2C2CCCOC2)c(=O)[nH]1` (racemic) [Example 93], the inhibition at 10 µM stood at 97% and the IC50 lay within 1 to 100 nM.

As for `O=c1[nH]c(Cc2ccccn2)nc2c1cnn2C1CCCOC1` (racemic) [Example 94], the inhibition at 10 µM came out at 96% and the IC50 lay within 101 to 1200 nM.

For `O=c1[nH]c(CC2CCC2)nc2c1cnn2C1CCCOC1` (racemic) [Example 96], the inhibition at 10 µM turned out to be 99% and the IC50 was 1 to 100 nM.

Take `O=c1[nH]c(Cc2ccccc2C(F)(F)F)nc2c1cnn2C1CCCOC1` (racemic) [Example 97]: the inhibition at 10 µM was found to be 98% and the IC50 was in the range of 1 to 100 nM.

In the case of `N#Cc1cccc(Cc2nc3c(cnn3C3CCCOC3)c(=O)[nH]2)c1` (racemic) [Example 98], the inhibition at 10 µM came out at 97% and the IC50 was 1 to 100 nM.

With `O=c1[nH]c(CC2CC2)nc2c1cnn2C1CCCOC1` (racemic) [Example 99], the inhibition at 10 µM came out at 96% and the IC50 was 1 to 100 nM.

Consider `Cc1cccnc1Cc1nc2c(cnn2C2CCCOC2)c(=O)[nH]1` (racemic) [Example 100], for which the inhibition at 10 µM was determined as 93% and the IC50 lay within 101 to 1200 nM.

Consider `O=c1[nH]c(Cc2ccc(F)cc2)nc2c1cnn2C1CCCOC1` (racemic) [Example 101], for which the inhibition at 10 µM was 98% and the concentration for half-maximal inhibition (IC50) was in the range of 1 to 100 nM.

(Values after US8623879B2, “1-heterocyclyl-1,5-dihydro-pyrazolo[3,4-D] pyrimidin-4-one derivates and their use as PDE9A modulators” (Boehringer Ingelheim International GmbH, priority 2008, dated 2014).)
